From patent US7659404B2, “Broad spectrum 2-(substituted-amino)-benzothiazole sulfonamide HIV protease inhibitors” (Tibotec Pharmaceuticals Ltd., priority 2001, dated 2010)

Columns and labels:
virus strain F (R13025) = test: microbe, parasite or virus in culture; type: cell-based, HIV; settings: FR=EC50(mutant strain)/EC50(HIV-1 strain LAI); strain F
Summary of the method: (§1)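 Activity against mutation-bearing clinical isolates is given as fold resistance, the ratio of mutant to HIV-1 LAI EC50. EC50 and EC90 reflect 50% and 90% protection of infected MT4 cells over a five-day culture. Cell survival was quantified by MTT formazan absorbance at 540 nm.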

virus strain S (R13080) = test: microbe, parasite or virus in culture; type: cell-based, HIV; settings: FR=EC50(mutant strain)/EC50(HIV-1 strain LAI); strain S
Summary of the method: as §1

[1] = system: clinically isolated HIV strain H; type: cell-based; settings: FR=EC50(mutant strain)/EC50(HIV-1 strain LAI)
Summary of the method: as §1

[2] = system: clinically isolated HIV strain I; type: cell-based; settings: FR=EC50(mutant strain)/EC50(HIV-1 strain LAI)
Summary of the method: as §1

[3] = system: clinically isolated HIV strain J; type: cell-based; settings: FR=EC50(mutant strain)/EC50(HIV-1 strain LAI)
Summary of the method: as §1

[4] = system: clinically isolated HIV strain O; type: cell-based; settings: FR=EC50(mutant strain)/EC50(HIV-1 strain LAI)
Summary of the method: as §1

[5] = system: clinically isolated HIV strain T; type: cell-based; settings: FR=EC50(mutant strain)/EC50(HIV-1 strain LAI)
Summary of the method: as §1

SMILES	fold resistance (FR), strain F (virus strain F (R13025))	fold resistance (FR), strain S (virus strain S (R13080))	fold resistance (FR), strain H [1]	fold resistance (FR), strain I [2]	fold resistance (FR), strain J [3]	fold resistance (FR), strain O [4]	fold resistance (FR), strain T [5]
CC(=O)N(C)c1nc2ccc(S(=O)(=O)N(CC(C)C)C[C@@H](O)[C@H](Cc3ccccc3)NC(=O)COc3c(C)cccc3C)cc2s1 [Compound 77]	8.9	11.6	2.2	8.3	11.0	11.7	144.7
CC(C)CN(C[C@@H](O)[C@H](Cc1ccccc1)NC(=O)OCc1cncs1)S(=O)(=O)c1ccc2nc(NCCCN(C)C)sc2c1 [Compound 51]	2.9	2.1	1.8	2.6	0.9	0.6	51.8
Cc1c(N)cccc1C(=O)N[C@@H](Cc1ccccc1)[C@H](O)CN(CC(C)C)S(=O)(=O)c1ccc2nc(NCCN3CCNCC3)sc2c1 [Compound 60]	1.2	1.4	1.3	1.3	0.6	1.1	4.1
CC(C)CN(C[C@@H](O)[C@H](Cc1ccccc1)NC(=O)OCc1cccnc1)S(=O)(=O)c1ccc2nc(NCCCN(C)C)sc2c1 [Compound 52]	10.2	20.3	1.8	1.3	2.7	1.6	124.5
CC(=O)N(C)c1nc2ccc(S(=O)(=O)N(CC(C)C)C[C@@H](O)[C@H](Cc3ccccc3)NC(=O)c3cccc(O)c3C)cc2s1 [Compound 83]	106.6	132.1	4.6	7.4	8.4	1.5	438.6
CC(=O)N(C)c1nc2ccc(S(=O)(=O)N(CC(C)C)C[C@@H](O)[C@H](Cc3ccccc3)NC(=O)c3cccc(N)c3C)cc2s1 [Compound 82]	13.8	17.9	5.0	4.4	5.5	8.0	214.1
CC(=O)N(CCN1CCCC1)c1nc2ccc(S(=O)(=O)N(CC(C)C)C[C@@H](O)[C@H](Cc3ccccc3)NC(=O)COc3c(C)cccc3C)cc2s1 [Compound 78]	4.8	12.1	2.6	3.9	2.9	8.9	60.5
Cc1c(N)cccc1C(=O)N[C@@H](Cc1ccccc1)[C@H](O)CN(CC(C)C)S(=O)(=O)c1ccc2nc(NCCCN(C)C)sc2c1 [Compound 54]	3.6	1.8	0.6	0.9	0.4	0.4	1.4
COC(=O)CNc1nc2ccc(S(=O)(=O)N(CC(C)C)CC(O)C(Cc3ccccc3)NC(=O)OC3COC4OCCC34)cc2s1 (mixture of isomers) [Compound 6]	24.0	30.7	7.7	5.3	5.6	4.7	104.3
